Data from patent US20170340689A1, “TITRATED EXTRACTS OF CYNARA SCOLYMUS FOR USE IN THE TREATMENT OF MESOTHELIOMA” (ABOCA S.P.A SOCIETÀ AGRICOLA, priority 2014, published 2017).

Tested on: untransformed HMC cells
Assay: ATPlite cell vitality assay in co-treatment with pemetrexed, untransformed cells
Type: cell-based, human
Details: extract at non-cytotoxic dose 6 μg/ml
Description: 4.1 Association of Extract of Cynara Spp. and Pemetrexed with ATPlite™ Assay

Nc1nc2[nH]cc(CCc3ccc(C(=O)N[C@@H](CCC(=O)O)C(=O)O)cc3)c2c(=O)[nH]1 [PMTX, pemetrexed]
cell vitality of untransformed HMC cells, pemetrexed alone or with extract: highly toxic for the non-tumour cells
